According to paper PMC7914897, “Cytotoxic Potential of a-Azepano- and 3-Amino-3,4-SeCo-Triterpenoids” (International Journal of Molecular Sciences, 2021):

What was measured:
[1] = system: SR (Leukemia); assay: NCI-60 screen (SRB, 48 h); type: cell-based
[2] = system: MDA-MB-435 (Melanoma); assay: NCI-60 screen (SRB, 48 h); type: cell-based
[3] = system: Leukemia subpanel; assay: cells; details: Homo sapiens
[4] = system: OVCAR-3 (Ovarian cancer); assay: cells; details: Homo sapiens
[5] = system: Melanoma subpanel; assay: NCI-60 screen, subpanel; details: Homo sapiens
[6] = system: Prostate cancer subpanel; assay: NCI-60 screen, subpanel; details: Homo sapiens
[7] = system: CCRF-CEM (Leukemia); assay: NCI-60 screen (SRB, 48 h); details: Homo sapiens
[8] = system: K-562 (Leukemia); assay: NCI-60 screen (SRB, 48 h); details: Homo sapiens
[9] = system: MOLT-4 (Leukemia); assay: NCI-60 screen (SRB, 48 h); details: Homo sapiens
[10] = system: RPMI-8226 (Leukemia); assay: NCI-60 screen (SRB, 48 h); details: Homo sapiens
[11] = system: HOP-92 (NSC lung cancer); assay: NCI-60 screen (SRB, 48 h); details: Homo sapiens
[12] = system: NCI-H226 (NSC lung cancer); assay: NCI-60 screen (SRB, 48 h); details: Homo sapiens
[13] = system: COLO 205 (Colon cancer); assay: NCI-60 screen (SRB, 48 h); details: Homo sapiens
[14] = system: HCC-2998 (Colon cancer); assay: NCI-60 screen (SRB, 48 h); details: Homo sapiens
[15] = system: HCT-15 (Colon cancer); assay: NCI-60 screen (SRB, 48 h); details: Homo sapiens
[16] = system: HT29 (Colon cancer); assay: NCI-60 screen (SRB, 48 h); details: Homo sapiens
[17] = system: KM12 (Colon cancer); assay: NCI-60 screen (SRB, 48 h); details: Homo sapiens
[18] = system: SW-620 (Colon cancer); assay: NCI-60 screen (SRB, 48 h); details: Homo sapiens
[19] = system: SNB-19 (CNS cancer); assay: NCI-60 screen (SRB, 48 h); details: Homo sapiens
[20] = system: MALME-3M (Melanoma); assay: NCI-60 screen (SRB, 48 h); details: Homo sapiens
[21] = system: SK-MEL-5 (Melanoma); assay: NCI-60 screen (SRB, 48 h); details: Homo sapiens
[22] = system: UACC-257 (Melanoma); assay: NCI-60 screen (SRB, 48 h); details: Homo sapiens
[23] = system: IGROV1 (Ovarian cancer); assay: NCI-60 screen (SRB, 48 h); details: Homo sapiens
[24] = system: TK-10 (Renal cancer); assay: NCI-60 screen (SRB, 48 h); details: Homo sapiens
[25] = system: UO-31 (Renal cancer); assay: NCI-60 screen (SRB, 48 h)
[26] = system: DU-145 (Prostate cancer); assay: NCI-60 screen (SRB, 48 h); details: Homo sapiens
[27] = system: MCF7 (Breast cancer); assay: NCI-60 screen (SRB, 48 h); details: Homo sapiens
[28] = system: HS 578T (Breast cancer); assay: NCI-60 screen (SRB, 48 h); details: Homo sapiens
[29] = system: T-47D (Breast cancer); assay: NCI-60 screen (SRB, 48 h); details: Homo sapiens, T47D

CC1(C)NCCC[C@]2(C)[C@H]3C=CC4=C5C[C@@](C)(CO)CC[C@]5(C)CC[C@@]4(C)[C@]3(C)CC[C@@H]12 [Compound 6, azepano-glycyrrhetol-diene] was tested, and the TGI [1] was 7.17 µM, the GI50 ([1]; Homo sapiens) was 2.42 µM and the CC50 ([1]; Homo sapiens, read-out: LC50 (the source's name)) was greater than 100 µM. For the same compound, the GI50 ([2]; Homo sapiens, MDA-MB-435) was 3.76 µM, the IC (TGI) ([2]; Homo sapiens, MDA-MB-435, 48 h, read-out: TGI) was 14 µM and the CC50 ([2]; Homo sapiens, MDA-MB-435, read-out: LC50 (the source's name)) was 43 µM. The “Growth % of the Most Sensitive Cell Lines” value ([2]; MDA-MB-435, 1 dose 10 µM) was −95.56%, the IC (TGI) ([3]; 48 h, read-out: TGI MG_MID) was 10.2 µM and the GI50 ([3]; read-out: GI50 MG_MID) was 3.02 µM. It also gave a CC50 ([3]; read-out: LC50 MG_MID) of 55.5 µM, a GI50 ([4]; OVCAR-3) of 2.69 µM and an IC (TGI) ([4]; OVCAR-3, 48 h, read-out: TGI) of 7.06 µM. The CC50 ([4]; OVCAR-3, read-out: LC50) was 34.8 µM, the IC (TGI) ([5]; 48 h, read-out: TGI MG_MID) was 11.9 µM and the GI50 ([5]; read-out: GI50 MG_MID) was 3.61 µM. It also gave a CC50 ([5]; read-out: LC50 MG_MID) of 36 µM, an IC (TGI) ([6]; 48 h, read-out: TGI MG_MID) of 8.66 µM and a GI50 ([6]; read-out: GI50 MG_MID) of 2.65 µM. For the same compound, the CC50 ([6]; read-out: LC50 MG_MID) was 26.2 µM, the GI50 [7] was 3.52 µM and the IC (TGI) ([7]; 48 h, read-out: TGI) was 14.5 µM. It also gave a CC50 ([7]; read-out: LC50) of 65.3 µM, a GI50 ([8]; K562) of 3.18 µM and an IC (TGI) ([8]; K562, 48 h, read-out: TGI) of 10.8 µM. For the same compound, the CC50 ([8]; K562, read-out: LC50) was 43.8 µM, the GI50 ([9]; MOLT-4) was 2.46 µM and the IC (TGI) ([9]; MOLT-4, 48 h, read-out: TGI) was 6.8 µM. For the same compound, the CC50 ([9]; MOLT-4, read-out: LC50) was 38.2 µM, the GI50 ([10]; RPMI-8226) was 3.91 µM and the IC (TGI) ([10]; RPMI-8226, 48 h, read-out: TGI) was 14.9 µM. It also gave a CC50 ([10]; RPMI-8226, read-out: LC50) of 52.9 µM, a GI50 ([11]; HOP-92) of 3.1 µM and an IC (TGI) ([11]; HOP-92, 48 h, read-out: TGI) of 14.6 µM. The CC50 ([11]; HOP-92, read-out: LC50) was 47 µM, the GI50 ([12]; NCI-H226) was 4 µM and the IC (TGI) ([12]; NCI-H226, 48 h, read-out: TGI) was 16.9 µM. It also gave a CC50 ([12]; NCI-H226, read-out: LC50) of 82.2 µM, a GI50 ([13]; COLO 205) of 3.63 µM and an IC (TGI) ([13]; COLO 205, 48 h, read-out: TGI) of 13.9 µM. The CC50 ([13]; COLO 205, read-out: LC50) was 43 µM, the GI50 ([14]; HCC 2998) was 10.1 µM and the IC (TGI) ([14]; HCC 2998, 48 h, read-out: TGI) was 23 µM. It also gave a CC50 ([14]; HCC 2998, read-out: LC50) of 52.3 µM, a GI50 ([15]; HCT-15) of 4.21 µM and an IC (TGI) ([15]; HCT-15, 48 h, read-out: TGI) of 16.4 µM. It also gave a CC50 ([15]; HCT-15, read-out: LC50) of 45.4 µM, a GI50 ([16]; HT-29) of 3.25 µM and an IC (TGI) ([16]; HT-29, 48 h, read-out: TGI) of 13.8 µM. The CC50 ([16]; HT-29, read-out: LC50) was 41.8 µM, the GI50 ([17]; KM12) was 6.09 µM and the IC (TGI) ([17]; KM12, 48 h, read-out: TGI) was 20.3 µM. For the same compound, the CC50 ([17]; KM12, read-out: LC50) was 55.1 µM, the GI50 ([18]; SW-620) was 5.76 µM and the IC (TGI) ([18]; SW-620, 48 h, read-out: TGI) was 18.8 µM. The CC50 ([18]; SW-620, read-out: LC50) was 47 µM, the GI50 ([19]; SNB-19) was 11.6 µM and the IC (TGI) ([19]; SNB-19, 48 h, read-out: TGI) was 25.3 µM. It also gave a CC50 ([19]; SNB-19, read-out: LC50) of 55.2 µM, a GI50 [20] of 2.64 µM and an IC (TGI) ([20]; 48 h, read-out: TGI) of 8.01 µM. It also gave a CC50 ([20]; read-out: LC50) of 32.5 µM, a GI50 ([21]; SK-MEL-5) of 2.14 µM and an IC (TGI) ([21]; SK-MEL-5, 48 h, read-out: TGI) of 4.94 µM. For the same compound, the CC50 ([21]; SK-MEL-5, read-out: LC50) was 14 µM, the GI50 ([22]; UACC-257) was 5.24 µM and the IC (TGI) ([22]; UACC-257, 48 h, read-out: TGI) was 17 µM. It also gave a CC50 ([22]; UACC-257, read-out: LC50) of 43.8 µM, a GI50 ([23]; IGROV-1) of 4.08 µM and an IC (TGI) ([23]; IGROV-1, 48 h, read-out: TGI) of 14.8 µM. For the same compound, the CC50 ([23]; IGROV-1, read-out: LC50) was 46.6 µM, the GI50 ([24]; TK-10) was 2.66 µM and the IC (TGI) ([24]; TK-10, 48 h, read-out: TGI) was 7.15 µM. For the same compound, the CC50 ([24]; TK-10, read-out: LC50) was 27.3 µM, the GI50 ([25]; Homo sapiens, UO-31) was 3.59 µM and the IC (TGI) ([25]; Homo sapiens, UO-31, 48 h, read-out: TGI) was 15.7 µM. For the same compound, the CC50 ([25]; Homo sapiens, UO-31, read-out: LC50) was 42.1 µM, the “Growth % of the Most Sensitive Cell Lines” value ([25]; UO-31, 1 dose 10 µM) was −98.13% and the GI50 ([26]; DU-145) was 2.25 µM. The IC (TGI) ([26]; DU-145, 48 h, read-out: TGI) was 5.02 µM, the CC50 ([26]; DU-145, read-out: LC50) was 13.8 µM and the GI50 ([27]; MCF7) was 3.14 µM. It also gave an IC (TGI) ([27]; MCF7, 48 h, read-out: TGI) of 14.5 µM, a CC50 ([27]; MCF7, read-out: LC50) of 46.7 µM and a GI50 [28] of 3.2 µM. For the same compound, the IC (TGI) ([28]; 48 h, read-out: TGI) was 13.2 µM, the CC50 ([28]; read-out: LC50) was 71.2 µM and the GI50 [29] was 5.38 µM. For the same compound, the IC (TGI) ([29]; 48 h, read-out: TGI) was 20.9 µM and the CC50 ([29]; read-out: LC50) was 59.5 µM.
